Measured values reported in patent publication US10369183B2, “Therapeutic compositions from jamaican bitter yam and methods of making and using same” (University of The West Indies, priority 2008, dated 2019).
Marks after values point to notes of the source that are not given here.

Key:
Format in all cases: in vivo, Wistar rats
Mg^2+ ATPase = assay: Intestinal Mg2+ ATPase activity in diabetic rats; details: diabetic rats fed 1% of diet, mean ± SEM
alanine transaminase = assay: Alanine transaminase activity of liver, kidney and spleen in diabetic rats; details: diabetic rats fed 1% of diet, 4 weeks, mean ± SEM
Description: (§1) Experimental design for the animal studies: adult Wistar rats […] were divided into six groups (8 rats per group, average body weight 249.0±0.3 g) as follows: Group 1—healthy rats receiving normal diet (normal); Group 2—diabetic rats fed normal diet (diabetic); Group 3—diabetic rats fed sapogenin extract (as 1% of the diet); Group 4—diabetic rats fed diosgenin (as 1% of normal diet); Group 5—diabetic rats fed bitter yam (as 1% of diet); and Group 6 fed the bitter yam therapeutic product (BYTP—as 1% of the diet).
(§2) The rats except the control group were made diabetic using standard procedures involving streptozotocin (60 mg/kg body weight in 0.05 M citrate buffer, pH 4.5) injection intraperitonally. The control group rats were injected with an equivalent amount of buffer (0.05 M citrate buffer, pH 4.5). The normal rat diet (PMI Feeds Inc., Lab diet #5001) was a marketed laboratory rodent diet recommended for rats, mice and hamsters with the approximate chemical composition: protein 23%, fat 4.5%, fiber 6.0%, ash 8.0% and carbohydrate 58.5%. Rats were housed in stainless steel cages in a room kept on a 12-hour light-dark cycle, and were allowed to have access to their respective diets and water freely. The cages were cleaned daily. Body weight change, faecal output and total food intake were recorded weekly. The rats were fed on their respective diets for 4 weeks and sacrificed by decapitation after an overnight fast. Blood was collected in oxalate/fluoride vacutainers. The intestine, kidney, liver and spleen were excised, weighed and frozen in liquid nitrogen and stored at −20° C. until required for analysis. A section of the jejunum was cut and stored in 10% buffered formalin.

maltase = assay: Intestinal maltase activity in diabetic rats; details: diabetic rats fed 1% of diet, mean ± SEM
Description: as §1, §2

glucose-6-phosphatase = assay: Glucose-6-phosphatase activity in liver and kidneys of diabetic rats; details: diabetic rats fed 1% of diet, mean ± SEM
Description: as §1
as §2, with “The rats were fed on their respective diets for 4 weeks and sacrificed by decapitation after an overnight fast. Blood was collected in oxalate/fluoride vacutainers. The intestine, kidney, liver and spleen were excised, weighed and frozen in liquid nitrogen and stored at −20° C. until required for analysis. A section of the jejunum was cut and stored in 10% buffered formalin.” left out

aspartate transaminase = assay: Aspartate transaminase activity of liver, kidney and spleen in diabetic rats; details: diabetic rats fed 1% of diet, 4 weeks, mean ± SEM
Description: as §1, §2

acid phosphatase = assay: Acid phosphatase activity of liver, kidney and spleen in diabetic rats; details: diabetic rats fed 1% of diet, 4 weeks, mean ± SEM
Description: as §1, §2

diabetic rats = assay: Lipid peroxidation (conjugated dienes, TBARS) in diabetic rats; details: diabetic rats fed 1% of diet, 4 weeks, mean ± SEM
Description: as §1, §2
Lipid peroxidation assays were conducted using the procedure of Tappel and Zalkin, Arch Biochim Biophys, 80: 333-336 (1959). Concentration of conjugated dienes in the liver was determined using the method of Hu et al., J Nutr, 119: 1574-1582 (1989).

Ca^2+ ATPase = assay: Intestinal Ca2+ ATPase activity in diabetic rats; details: diabetic rats fed 1% of diet, mean ± SEM
Procedure: (§3) Group 1—healthy rats receiving normal diet (normal); Group 2—diabetic rats fed normal diet (diabetic); […] Group 4—diabetic rats fed diosgenin (as 1% of normal diet); Group 5—diabetic rats fed bitter yam (as 1% of diet); and Group 6 fed the bitter yam therapeutic product (BYTP—as 1% of the diet). The rats except the control group were made diabetic using standard procedures involving streptozotocin (60 mg/kg body weight in 0.05 M citrate buffer, pH 4.5) injection intraperitonally. The control group rats were injected with an equivalent amount of buffer (0.05 M citrate buffer, pH 4.5). […] Rats were housed in stainless steel cages in a room kept on a 12-hour light-dark cycle, and were allowed to have access to their respective diets and water freely. The cages were cleaned daily. Body weight change, faecal output and total food intake were recorded weekly. The rats were fed on their respective diets for 4 weeks and sacrificed by decapitation after an overnight fast. Blood was collected in oxalate/fluoride vacutainers. The intestine, kidney, liver and spleen were excised, weighed and frozen in liquid nitrogen and stored at −20° C. until required for analysis. A section of the jejunum was cut and stored in 10% buffered formalin. Na^+/K^+ and Ca^+ ATPase activities were measured by the amount of inorganic phosphate released following incubation with disodium ATP and cations for the appropriate ATPase (see Bonting et al., Sodium-potassium activated adenosinetriphosphatase and cation transport, in Membranes and Ion Transport I, Bittar (Ed.). Wiley-Interscience, N.Y., pp. 257-363 (1970); and Bonting et al., Archives of Biochemistry and Biophysics 101: 47-55 (1963)). The inorganic phosphate was determined by the method of Fiske and Subarow, Journal of Biological Chemistry 66: 375-400 (1925).

Na^+/K^+ ATPase = assay: Intestinal Na+/K+ ATPase activity in diabetic rats; details: diabetic rats fed 1% of diet, mean ± SEM
Procedure: as §3

`C[C@@H]1CC[C@@]2(OC1)O[C@H]1C[C@H]3[C@@H]4CC=C5C[C@@H](O)CC[C@]5(C)[C@H]4CC[C@]3(C)[C@H]1[C@@H]2C` [diosgenin] was tested, and the “Specific activity of Mg^2+ ATPase from rat intestinal sections” value (from here on “Specific activity of Mg^2+ ATPase”) (Mg^2+ ATPase; Distal) was 16.4 ± 0.6^a nmol Pi/min/mg protein, the “Specific activity of Mg^2+ ATPase” value (Mg^2+ ATPase; Mid) was 22.1 ± 0.4^b nmol Pi/min/mg protein and the “Specific activity of Mg^2+ ATPase” value (Mg^2+ ATPase; Proximal) was 27.8 ± 0.5^a nmol Pi/min/mg protein. The Alanine transaminase (alanine transaminase; kidney) was 5.4 ± 0.5^a mg pyr/min/mg protein × 10^−4, the Alanine transaminase (alanine transaminase; liver) was 14.1 ± 2.80^a mg pyr/min/mg protein × 10^−4 and the Alanine transaminase (alanine transaminase; spleen) was 10.7 ± 1.8^ab mg pyr/min/mg protein × 10^−4. For the same molecule, the “Specific activity of maltase from different sections of the rat intestine” value (maltase; Distal) was 14.0 ± 1.0.^A nmol maltase/min/mg protein, the “Specific activity of maltase from different sections of the rat intestine” value (maltase; Mid) was 17.1 ± 0.9^a nmol maltase/min/mg protein and the “Specific activity of maltase from different sections of the rat intestine” value (maltase; Upper) was 18.4 ± 1.2^a nmol maltase/min/mg protein. The “glucose-6-phosphatase activity, Kidney” value (glucose-6-phosphatase; kidney) was 11.0 ± 2.0^b μmole/min/mg protein × 10^−2, the “glucose-6-phosphatase activity, Liver” value (glucose-6-phosphatase; liver) was 8.3 ± 1.0^a μmole/min/mg protein × 10^−2 and the Aspartate transaminase (aspartate transaminase; kidney) was 5.5 ± 0.6^bc mg pyr/min/mg protein × 10^−4. The Aspartate transaminase (aspartate transaminase; liver) was 8.6 ± 0.7^ab mg pyr/min/mg protein × 10^−4, the Aspartate transaminase (aspartate transaminase; spleen) was 7.1 ± 1.3^ab mg pyr/min/mg protein × 10^−4 and the Acid phosphatase (acid phosphatase; kidney) was 27.3 ± 1.1^a mg PNP/min/mg protein × 10^−5. The Acid phosphatase (acid phosphatase; liver) was 17.3 ± 0.9^a mg PNP/min/mg protein × 10^−5, the Acid phosphatase (acid phosphatase; spleen) was 9.0 ± 0.8^b mg PNP/min/mg protein × 10^−5 and the “Kidney TBARS” value (diabetic rats) was 61.7 ± 6.6^a nmol/g kidney. For the same molecule, the “Liver TBARS” value (diabetic rats) was 18.1 ± 2.1^a nmol/g liver, the Conjugated dienes (diabetic rats; liver) was 0.428 ± 0.082^a μmole/g liver and the “Specific activity of Ca^2+ ATPase from rat intestinal sections” value (“Specific activity of Ca^2+ ATPase” below) (Ca^2+ ATPase; Distal) was 13.1 ± 0.3^b nmol Pi/min/mg protein. For the same molecule, the “Specific activity of Ca^2+ ATPase” value (Ca^2+ ATPase; Mid) was 17.1 ± 0.4^c nmol Pi/min/mg protein, the “Specific activity of Ca^2+ ATPase” value (Ca^2+ ATPase; Proximal) was 34.9 ± 0.6^a nmol Pi/min/mg protein and the “Specific activity of Na^+/K^+ ATPase from rat intestinal sections” value (shortened to “Specific activity of Na^+/K^+ ATPase”) (Na^+/K^+ ATPase; Distal) was 7.3 ± 0.1^c nmol Pi/min/mg protein. The “Specific activity of Na^+/K^+ ATPase” value (Na^+/K^+ ATPase; Mid) was 9.5 ± 0.1^c nmol Pi/min/mg protein and the “Specific activity of Na^+/K^+ ATPase” value (Na^+/K^+ ATPase; Proximal) was 12.8 ± 0.2^c nmol Pi/min/mg protein.
